Key:
Format in all cases: cell-based
[1] = test system: E coli NCTC 10418; test: MIC, human bacteria, serial dilution in nutrient agar; details: nutrient agar containing 5% 'chocolated' horse blood
[2] = test system: E coli ESS; test: as above; details: nutrient agar containing 5% 'chocolated' horse blood
[3] = test system: P mirabilis 889; test: as above; details: nutrient agar containing 5% 'chocolated' horse blood
[4] = test system: K aerogenes A; test: as above; details: nutrient agar containing 5% 'chocolated' horse blood
[5] = test system: Ps aeruginosa 10662; test: as above; details: nutrient agar containing 5% 'chocolated' horse blood
[6] = test system: Pasteurella multocida 1633; test: as above; details: nutrient agar containing 5% 'chocolated' horse blood
[7] = test system: Haemophilus influenzae Wy21; test: as above; details: nutrient agar containing 5% 'chocolated' horse blood
[8] = test system: Neisseria catarrhalis 1502; test: as above; details: Neisseria catarrhalis 1502 (footnote a); nutrient agar containing 5% 'chocolated' horse blood
[9] = test system: Bacillus subtilis 6633; test: as above; details: nutrient agar containing 5% 'chocolated' horse blood
[10] = test system: Corynebacterium zerosis 9755; test: as above; details: nutrient agar containing 5% 'chocolated' horse blood
[11] = test system: Staph aureus Oxford; test: as above; details: nutrient agar containing 5% 'chocolated' horse blood
[12] = test system: Staph aureus Russell; test: as above; details: nutrient agar containing 5% 'chocolated' horse blood
[13] = test system: Staph aureus W2827; test: as above; details: nutrient agar containing 5% 'chocolated' horse blood
[14] = test system: Strep faecalis I; test: as above; details: nutrient agar containing 5% 'chocolated' horse blood
[15] = test system: Strep pyogenes A R80/421; test: as above; details: Strep pyogenes A R80/421 (footnote b); nutrient agar containing 5% 'chocolated' horse blood
[16] = test system: Strep pyogenes B 2788; test: as above; details: nutrient agar containing 5% 'chocolated' horse blood
[17] = test system: Strep pyogenes C 641848; test: as above; details: Strep pyogenes C 641848 (footnote c); nutrient agar containing 5% 'chocolated' horse blood
[18] = test system: Strep pneumoniae CN33; test: as above; details: nutrient agar containing 5% 'chocolated' horse blood
[19] = test system: E coli NCTC 10418; test: MIC, veterinary bacteria; details: veterinary bacteria (Table 2)
[20] = test system: E coli E1; test: MIC, veterinary bacteria; details: veterinary bacteria (Table 2)
[21] = test system: S dublin S7; test: MIC, veterinary bacteria; details: veterinary bacteria (Table 2)
[22] = test system: S typhimurium S18; test: MIC, veterinary bacteria; details: veterinary bacteria (Table 2)
[23] = test system: Bord bronchiseptica BO8; test: MIC, veterinary bacteria; details: veterinary bacteria (Table 2)
[24] = test system: Bord bronchisptica BO9; test: MIC, veterinary bacteria; details: veterinary bacteria (Table 2)
[25] = test system: Past multocida PA1; test: MIC, veterinary bacteria; details: veterinary bacteria (Table 2)
[26] = test system: Past multocida PA2; test: MIC, veterinary bacteria; details: veterinary bacteria (Table 2)
[27] = test system: Past Haemolytica PA5; test: MIC, veterinary bacteria; details: veterinary bacteria (Table 2)
[28] = test system: Erysipelothrix rhusiopathiae NCTC 8163; test: MIC, veterinary bacteria; details: veterinary bacteria (Table 2)
[29] = test system: Corynebacterium pyogenes CY1; test: MIC, veterinary bacteria; details: veterinary bacteria (Table 2)
[30] = test system: Staph aureus B4 (pen resis); test: MIC, veterinary bacteria; details: veterinary bacteria (Table 2)
[31] = test system: Staph aureus 152 (pen sens); test: MIC, veterinary bacteria; details: veterinary bacteria (Table 2)
[32] = test system: Staph aureus Oxford; test: MIC, veterinary bacteria; details: veterinary bacteria (Table 2)
[33] = test system: Strep suis (group D) SPS11; test: MIC, veterinary bacteria; details: veterinary bacteria (Table 2)
[34] = test system: Strep uberis SPU1; test: MIC, veterinary bacteria; details: veterinary bacteria (Table 2)
[35] = test system: Strep dysgalaciae SPD1; test: MIC, veterinary bacteria; details: veterinary bacteria (Table 2)
[36] = test system: Strep agalactiae SPA1; test: MIC, veterinary bacteria; details: veterinary bacteria (Table 2)
[37] = test system: M. suipneumoniae NB12; test: MIC, anti-mycoplasmal, Friis broth solidified with 0.9% agarose; details: inoculum 10^3 to 10^5 C.F.U., 6 days incubation at 37°C
[38] = test system: M. suipneumoniae JF 435; test: as above; details: inoculum 10^3 to 10^5 C.F.U., 6 days incubation at 37°C
[39] = test system: M. suipneumoniae HK(2); test: as above; details: inoculum 10^3 to 10^5 C.F.U., 6 days incubation at 37°C
[40] = test system: M. suipneumoniae Str. 11; test: as above; details: inoculum 10^3 to 10^5 C.F.U., 6 days incubation at 37°C
[41] = test system: M. suipneumoniae J2206/183b; test: as above; details: inoculum 10^3 to 10^5 C.F.U., 6 days incubation at 37°C
[42] = test system: M. suipneumoniae MS 16; test: as above; details: inoculum 10^3 to 10^5 C.F.U., 6 days incubation at 37°C
[43] = test system: M. suipneumoniae PW/C/210; test: as above; details: inoculum 10^3 to 10^5 C.F.U., 6 days incubation at 37°C
[44] = test system: M. suipneumoniae LABER; test: as above; details: inoculum 10^3 to 10^5 C.F.U., 6 days incubation at 37°C
[45] = test system: M. suipneumoniae UCD 1; test: as above; details: inoculum 10^3 to 10^5 C.F.U., 6 days incubation at 37°C
[46] = test system: M. suipneumoniae TAM 6N; test: as above; details: inoculum 10^3 to 10^5 C.F.U., 6 days incubation at 37°C
[47] = test system: M. suipneumoniae ATCC 25095; test: as above; details: inoculum 10^3 to 10^5 C.F.U., 6 days incubation at 37°C
[48] = test system: M. suipneumoniae NCTC 10110; test: as above; details: inoculum 10^3 to 10^5 C.F.U., 6 days incubation at 37°C
[49] = test system: M. hyorhinis ATCC 23234; test: as above; details: inoculum 10^3 to 10^5 C.F.U., 6 days incubation at 37°C
[50] = test system: M. hyorhinis ATCC 25021; test: as above; details: inoculum 10^3 to 10^5 C.F.U., 6 days incubation at 37°C
[51] = test system: M. hyosynoviae ATCC 25591; test: as above; details: inoculum 10^3 to 10^5 C.F.U., 6 days incubation at 37°C
[52] = test system: M. bovis NCTC 10131; test: microbe, parasite or virus in culture; details: M. bovis NCTC 10131; inoculum 10^3 to 10^5 C.F.U., 6 days incubation at 37°C
[53] = test system: M. bovigenitalium ATCC 14173; test: MIC, anti-mycoplasmal, Friis broth solidified with 0.9% agarose; details: inoculum 10^3 to 10^5 C.F.U., 6 days incubation at 37°C
[54] = test system: M. dispar NCTC 10125; test: as above; details: inoculum 10^3 to 10^5 C.F.U., 6 days incubation at 37°C
[55] = test system: M. gallisepticum S6; test: as above; details: inoculum 10^3 to 10^5 C.F.U., 6 days incubation at 37°C
[56] = test system: M. pneumoniae ATCC 15492; test: as above; details: inoculum 10^3 to 10^5 C.F.U., 6 days incubation at 37°C

Cyclohexan-4-onyl monate A [Example 8]
MIC [1]: >100 µm/ml
MIC [2]: 0.5 µm/ml
MIC [3]: 100 µm/ml
MIC [4]: >100 µm/ml
MIC [5]: >100 µm/ml
MIC [6]: 0.5 µm/ml
MIC [7]: 0.1 µm/ml
MIC [8]: ^a0.5 µm/ml
MIC [9]: 0.5 µm/ml
MIC [10]: >100 µm/ml
MIC [11]: 1.0 µm/ml
MIC [12]: 2.5 µm/ml
MIC [13]: 2.5 µm/ml
MIC [14]: 25.0 µm/ml
MIC [15]: ^b0.5 µm/ml
MIC [16]: 0.5 µm/ml
MIC [17]: ^c0.5 µm/ml
MIC [18]: 0.5 µm/ml
MIC [19]: >80 µg/mL
MIC [20]: >80 µg/mL
MIC [21]: >80 µg/mL
MIC [22]: >80 µg/mL
MIC [23]: 80 µg/mL
MIC [24]: 20 µg/mL
MIC [25]: .312 µg/mL
MIC [26]: .156 µg/mL
MIC [27]: 5 µg/mL
MIC [28]: 10 µg/mL
MIC [29]: >80 µg/mL
MIC [30]: 2.5 µg/mL
MIC [31]: 1.25 µg/mL
MIC [32]: 1.25 µg/mL
MIC [33]: 2.5 µg/mL
MIC [34]: .312 µg/mL
MIC [35]: .156 µg/mL
MIC [36]: .625 µg/mL
in vitro MIC [37]: 0.25 µg/mL
in vitro MIC [38]: 0.5 µg/mL
in vitro MIC [39]: 0.5 µg/mL
in vitro MIC [40]: 0.25 µg/mL
in vitro MIC [41]: 0.5 µg/mL
in vitro MIC [42]: 0.25 µg/mL
in vitro MIC [43]: 0.25 µg/mL
in vitro MIC [44]: 0.25 µg/mL
in vitro MIC [45]: 0.5 µg/mL
in vitro MIC [46]: 0.5 µg/mL
in vitro MIC [47]: 0.25 µg/mL
in vitro MIC [48]: 0.5 µg/mL
in vitro MIC [49]: 0.25 µg/mL
in vitro MIC [50]: 0.25 µg/mL
in vitro MIC [51]: 0.1 µg/mL
in vitro MIC [52]: 0.025 µg/mL
in vitro MIC [53]: 0.025 µg/mL
in vitro MIC [54]: 0.1 µg/mL
in vitro MIC [55]: 5.0 µg/mL
in vitro MIC [56]: 1.0 µg/mL

Source: patent EP0025288A1, “Derivatives of monic acid, processes for their preparation, compositions containing them and their preparation” (priority 1979, dated 1981)
